{"source": "ChEMBL document CHEMBL5512664", "about": "“Emerging and Re-emerging Warheads for Targeted Covalent Inhibitors: An Update” (J Med Chem, 2024)", "key": {"[1]": {"target": "T1, Carbonic anhydrase 2 (Homo sapiens, UniProt P00918)", "experiment": "Binding affinity to carbonic anhydrase II (unknown origin) fragment assessed as rate of protein modification by measuring inactivation rate constant (Kinact)"}, "[2]": {"target": "T1, Carbonic anhydrase 2", "experiment": "Rate of protein modification at carbonic anhydrase II (unknown origin) fragment assessed as inhibition constant"}, "[3]": {"target": "T2, Replicase polyprotein 1ab (Severe acute respiratory syndrome coronavirus 2, UniProt P0DTD1)", "experiment": "Binding affinity to SARS-CoV-2 cysteine protease-Mpro assessed as inhibition constant"}, "[4]": {"target": "Replicase polyprotein 1ab (Severe acute respiratory syndrome coronavirus 2) (UniProt P0DTD1)", "experiment": "Binding affinity to SARS-CoV-2 cysteine protease-Mpro assessed as inactivation rate constant (Kinact)"}, "[5]": {"experiment": "Reactivity of SuTEx assessed as aryl-AG modifications by measuring half life by HLPC analysis", "type": "physicochemical"}, "[6]": {"experiment": "GSH reactivity in PBS buffer at pH 7.4 assessed as half life", "type": "ADME"}, "[7]": {"experiment": "Reactivity rate at cyclic sulfonamide assessed as rate constant by CSA sulfenic-acid model", "type": "physicochemical"}, "[8]": {"experiment": "GSH reactivity in PBS buffer at pH 8 assessed as second-order reaction rate constants upto 200 uM by DTNB assay", "type": "ADME", "conditions": "pH 8, 200 µM"}, "[9]": {"experiment": "GSH reactivity in PBS buffer at pH 8 at 14 degC assessed as half life upto 200 uM", "type": "ADME"}, "[10]": {"experiment": "Thiol reactivity of compound assessed as (Kinact/Ki) rate constant ratio", "type": "ADME"}, "[11]": {"target": "T3, Tyrosine-protein kinase BTK (Homo sapiens, UniProt Q06187)", "T3 sequence (Q06187 whole entry)": "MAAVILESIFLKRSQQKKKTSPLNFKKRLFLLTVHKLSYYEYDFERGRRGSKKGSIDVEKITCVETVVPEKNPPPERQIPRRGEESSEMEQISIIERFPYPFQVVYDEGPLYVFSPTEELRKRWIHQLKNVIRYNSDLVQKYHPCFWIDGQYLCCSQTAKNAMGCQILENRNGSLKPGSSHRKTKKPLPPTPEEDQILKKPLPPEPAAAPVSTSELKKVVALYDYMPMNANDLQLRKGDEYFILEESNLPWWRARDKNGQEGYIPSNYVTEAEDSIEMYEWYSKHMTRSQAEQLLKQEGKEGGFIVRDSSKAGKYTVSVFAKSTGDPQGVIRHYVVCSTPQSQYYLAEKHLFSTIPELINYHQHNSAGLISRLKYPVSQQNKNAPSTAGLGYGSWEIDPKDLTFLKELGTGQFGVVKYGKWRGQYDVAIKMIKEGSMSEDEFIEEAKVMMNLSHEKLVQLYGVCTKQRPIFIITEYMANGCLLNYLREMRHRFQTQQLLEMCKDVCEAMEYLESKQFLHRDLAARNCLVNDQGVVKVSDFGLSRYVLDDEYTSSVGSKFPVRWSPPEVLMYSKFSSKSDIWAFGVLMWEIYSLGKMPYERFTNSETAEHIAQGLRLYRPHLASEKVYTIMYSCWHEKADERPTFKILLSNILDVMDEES", "experiment": "Binding affinity to BTK (unknown origin) assessed as inhibition constant"}, "[12]": {"target": "T3, Tyrosine-protein kinase BTK", "description": "Binding affinity to BTK (unknown origin) assessed as inactivation rate constant (Kinact)"}, "[13]": {"target": "T2, Replicase polyprotein 1ab", "experiment": "Inhibition of SARS-CoV-2 papain-like protease (PLpro) using fluorogenic peptide substrate by fluorescent assay"}, "[14]": {"target": "T4, Tyrosine-protein kinase ABL1 (Homo sapiens, UniProt P00519)", "T4 sequence (P00519 whole entry)": "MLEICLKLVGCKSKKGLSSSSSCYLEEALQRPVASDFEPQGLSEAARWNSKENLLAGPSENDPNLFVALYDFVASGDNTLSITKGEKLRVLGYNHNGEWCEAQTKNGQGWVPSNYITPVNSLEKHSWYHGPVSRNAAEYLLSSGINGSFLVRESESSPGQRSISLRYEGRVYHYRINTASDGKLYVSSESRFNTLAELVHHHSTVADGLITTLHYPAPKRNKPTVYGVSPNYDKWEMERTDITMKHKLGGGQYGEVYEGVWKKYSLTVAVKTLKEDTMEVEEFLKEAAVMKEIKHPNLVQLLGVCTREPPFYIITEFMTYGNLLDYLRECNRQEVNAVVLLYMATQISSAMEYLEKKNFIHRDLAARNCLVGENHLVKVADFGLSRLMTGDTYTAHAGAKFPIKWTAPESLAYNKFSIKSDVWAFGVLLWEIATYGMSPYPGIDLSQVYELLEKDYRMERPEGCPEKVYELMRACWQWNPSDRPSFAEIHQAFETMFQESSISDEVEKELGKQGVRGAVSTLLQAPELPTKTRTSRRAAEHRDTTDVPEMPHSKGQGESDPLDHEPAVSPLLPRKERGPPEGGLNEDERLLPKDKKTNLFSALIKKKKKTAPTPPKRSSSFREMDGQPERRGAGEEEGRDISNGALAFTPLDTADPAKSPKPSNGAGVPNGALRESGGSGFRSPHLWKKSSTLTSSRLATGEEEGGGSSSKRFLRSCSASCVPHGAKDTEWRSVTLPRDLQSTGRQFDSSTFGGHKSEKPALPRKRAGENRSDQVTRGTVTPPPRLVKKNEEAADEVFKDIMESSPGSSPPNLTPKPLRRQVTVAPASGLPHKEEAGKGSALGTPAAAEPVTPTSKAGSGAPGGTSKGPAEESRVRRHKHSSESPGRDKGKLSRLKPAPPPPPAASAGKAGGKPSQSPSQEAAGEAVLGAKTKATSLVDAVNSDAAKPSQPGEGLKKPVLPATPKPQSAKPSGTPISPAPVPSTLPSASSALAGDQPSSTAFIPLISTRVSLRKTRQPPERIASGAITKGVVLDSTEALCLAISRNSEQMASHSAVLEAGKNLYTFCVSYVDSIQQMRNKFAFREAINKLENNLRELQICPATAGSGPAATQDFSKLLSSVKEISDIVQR", "experiment": "Inhibition of recombinant ABL kinase (unknown origin) assessed as inactivation rate constant (Kinact)"}, "[15]": {"target": "T4, Tyrosine-protein kinase ABL1", "experiment": "Inhibition of recombinant ABL kinase (unknown origin) assessed as inhibition constant"}, "[16]": {"experiment": "Cysteine-reactive in peptide assessed as half life using fluorogenic monochlorobimane/zinc complex by measuring fluorescence intensity", "type": "ADME", "conditions": "cysteine-containing peptide"}, "[17]": {"species": "Homo sapiens", "experiment": "Binding affinity to wild type Hsp90 (unknown origin) assessed as rate of modification half life"}, "[18]": {"species": "Homo sapiens", "experiment": "Inhibition of wild type Hsp90 (unknown origin) assessed as inactivation rate constant (Kinact)"}, "[19]": {"experiment": "Reactivity of SuTEx assessed as aryl-LG modifications by measuring half life by HLPC analysis", "type": "physicochemical"}, "[20]": {"experiment": "Chemical stability of the compound in pH 7.4 buffer assessed as half life", "type": "physicochemical"}, "[21]": {"target": "T4, Tyrosine-protein kinase ABL1", "experiment": "Inhibition of wild type N-terminal His tagged ABL kinase (unknown origin) using fluorescence-labelled substrate by off-chip mobility shift assay"}, "[22]": {"experiment": "Cytotoxicity against African green monkey Vero E6 cells", "type": "toxicity, cell-based, Vero C1008", "conditions": "chlorocebus sabaeus"}}, "data": [{"smiles": "NS(=O)(=O)c1cccc(CNC(=O)c2cccc(S(=O)(=O)F)c2)c1", "values": [{"measurement": "Kinact", "setting": "[1]", "value": "21 10^-5/s"}, {"measurement": "Ki", "setting": "[2]", "value": "< 5", "unit": "µM"}]}, {"smiles": "O=C(NCCc1cccc(F)c1)[C@@H](c1cncnc1)N(C(=O)[C@@H](F)Cl)c1ccc(S(F)(F)(F)(F)F)cc1", "values": [{"measurement": "Ki", "setting": "[3]", "value": 53.6, "unit": "µM"}, {"measurement": "Kin", "setting": "[4]", "value": "1.1 10^-3/s"}]}, {"smiles": "COc1ccc(-c2ncn(S(=O)(=O)C3CC3)n2)cc1", "values": [{"measurement": "half-life", "setting": "[5]", "value": "> 360", "unit": "min"}]}, {"smiles": "CN(C(=O)C12CC1C2)c1ccccc1", "note": "(stereo not drawn)", "values": [{"measurement": "half-life", "setting": "[6]", "value": 32.7, "unit": "h"}]}, {"smiles": "NS(=O)(=O)c1ccc(CCNS(=O)(=O)c2ccc(S(=O)(=O)F)cc2)cc1", "values": [{"measurement": "Kinact", "setting": "[1]", "value": "2.1 10^-5/s"}, {"measurement": "Ki", "setting": "[2]", "value": "< 5", "unit": "µM"}]}, {"smiles": "C#CCCCN1c2ccccc2C(=O)CS1(=O)=O", "values": [{"measurement": "K", "setting": "[7]", "value": 1700, "unit": "M⁻¹ s⁻¹"}]}, {"smiles": "C=CC(=O)NCc1ccccc1", "values": [{"measurement": "K", "setting": "[8]", "value": 0.003, "unit": "M⁻¹ s⁻¹"}]}, {"smiles": "CNS(=O)(=O)OCC(=O)NCc1ccccc1", "values": [{"measurement": "K", "setting": "[8]", "value": 0.029, "unit": "M⁻¹ s⁻¹"}, {"measurement": "half-life at up to 200 µM", "setting": "[9]", "value": "~300", "unit": "min"}]}, {"smiles": "CC(C)(C)OC(=O)/C=C/C(=O)N1CCC[C@@H](n2nc(-c3ccc(Oc4ccccc4)cc3)c3c(N)ncnc32)C1", "values": [{"measurement": "kinact/KI", "setting": "[10]", "value": 35000, "unit": "M⁻¹ s⁻¹"}, {"measurement": "Ki", "setting": "[11]", "value": 0.221, "unit": "µM"}, {"measurement": "Kinact", "setting": "[12]", "value": "7.62 10^-3/s"}]}, {"smiles": "NS(=O)(=O)c1ccc(CCNC(=O)c2ccc(S(=O)(=O)F)cc2)cc1", "values": [{"measurement": "Kinact", "setting": "[1]", "value": "0.89 10^-5/s"}, {"measurement": "Ki", "setting": "[2]", "value": "< 5", "unit": "µM"}]}, {"smiles": "CCSc1nc2sc3c(c2c(=O)n1CC)CCc1ccccc1-3", "values": [{"measurement": "half-life", "setting": "[6]", "value": 0.683, "unit": "h"}, {"measurement": "IC50", "setting": "[13]", "value": 4.9, "unit": "µM"}]}, {"smiles": "NC(=O)C(F)Br", "note": "(stereo not drawn)", "values": [{"measurement": "half-life", "setting": "[6]", "value": 0.15, "unit": "h"}]}, {"smiles": "COc1ccc(-c2ncn(S(=O)(=O)c3cccnc3)n2)cc1", "values": [{"measurement": "half-life", "setting": "[5]", "value": 1.6, "unit": "min"}]}, {"smiles": "C#Cc1cc(OC)c(-c2ccc3nc(NC(=O)NCO)sc3c2)cc1C=O", "values": [{"measurement": "Kinact", "setting": "[14]", "value": "1.27 10^-3/s"}, {"measurement": "Ki", "setting": "[15]", "value": 0.013, "unit": "µM"}]}, {"smiles": "NC(=O)CCl", "values": [{"measurement": "half-life", "setting": "[6]", "value": "< 1.67", "unit": "h"}, {"measurement": "half-life", "setting": "[16]", "value": 2.4, "unit": "min"}]}, {"smiles": "C#CCOCCOCCOc1cccc(N2CCN(C(=O)C(C)(F)Br)CC2)c1", "note": "(stereo not drawn)", "values": [{"measurement": "half-life", "setting": "[6]", "value": "> 167", "unit": "h"}]}, {"smiles": "O=C(COS(=O)(=O)NCc1ccccc1)NCc1ccccc1", "values": [{"measurement": "K", "setting": "[8]", "value": 0.02, "unit": "M⁻¹ s⁻¹"}, {"measurement": "half-life at up to 200 µM", "setting": "[9]", "value": "~720", "unit": "min"}]}, {"smiles": "Nc1ncnc2c1nc(Sc1cc3c(cc1I)OCO3)n2C[C@H]1CCCN(Cc2cccc(S(=O)(=O)F)c2)C1", "values": [{"measurement": "T1/2", "setting": "[17]", "value": 5, "unit": "min"}, {"measurement": "Kinact", "setting": "[18]", "value": "2.17 10^-3/s"}]}, {"smiles": "CC(NC(=O)Cc1ccc(S(=O)(=O)F)cc1)c1cccc(S(N)(=O)=O)c1", "note": "(stereo not drawn)", "values": [{"measurement": "Kinact", "setting": "[1]", "value": "0.97 10^-5/s"}, {"measurement": "Ki", "setting": "[2]", "value": 22, "unit": "µM"}]}, {"smiles": "COc1ccc(-c2ncn(S(=O)(=O)c3ccc(F)cc3)n2)cc1", "values": [{"measurement": "half-life", "setting": "[19]", "value": 14.2, "unit": "min"}]}, {"smiles": "CN(C)C/C=C/C(N)=O", "values": [{"measurement": "half-life", "setting": "[16]", "value": 30.6, "unit": "min"}]}, {"smiles": "CC#CC1=Nc2ccccc2C(C)(C)N1", "values": [{"measurement": "half-life", "setting": "[6]", "value": 0.025, "unit": "h"}, {"measurement": "half-life", "setting": "[20]", "value": "> 167", "unit": "h"}]}, {"smiles": "NS(=O)(=O)c1cccc(CNS(=O)(=O)c2ccc(S(=O)(=O)F)cc2)c1", "values": [{"measurement": "Kinact", "setting": "[1]", "value": "9.6 10^-5/s"}, {"measurement": "Ki", "setting": "[2]", "value": "< 5", "unit": "µM"}]}, {"smiles": "C#CCOCCOCCOc1cccc(N2CCN(C(=O)C(F)(F)Br)CC2)c1", "values": [{"measurement": "half-life", "setting": "[6]", "value": 33.4, "unit": "h"}]}, {"smiles": "COc1cc(S(=O)(=O)F)ccc1-c1c[nH]c2ncc(-c3cncc(C(=O)N(C)C)c3)cc12", "values": [{"measurement": "IC50", "setting": "[21]", "value": 0.073, "unit": "µM"}]}, {"smiles": "C[C@@H](NC(=O)[C@H](c1cccnc1)N(C(=O)C(Cl)Cl)c1ccc(-c2ccccc2)cc1)c1ccccc1", "values": [{"measurement": "CC50", "setting": "[22]", "value": "> 100", "unit": "µM"}]}, {"smiles": "COc1cc(OC)cc(C(=O)C23CC2C3)c1", "note": "(stereo not drawn)", "values": [{"measurement": "half-life", "setting": "[6]", "value": 32.7, "unit": "h"}]}, {"smiles": "NC(=O)C(Cl)Br", "note": "(stereo not drawn)", "values": [{"measurement": "half-life", "setting": "[6]", "value": "< 1.67", "unit": "h"}]}, {"smiles": "O=C(NCCc1cccc(F)c1)[C@H](c1cncnc1)N(C(=O)[C@H](F)Cl)c1ccc(S(F)(F)(F)(F)F)cc1", "values": [{"measurement": "Ki", "setting": "[3]", "value": 64.7, "unit": "µM"}, {"measurement": "Kinact", "setting": "[4]", "value": "4.3 10^-3/s"}]}, {"smiles": "COc1ccc(-c2ncn(S(=O)(=O)c3ccc(-c4ccccc4)cc3)n2)cc1", "values": [{"measurement": "half-life", "setting": "[5]", "value": 17.3, "unit": "min"}]}, {"smiles": "CCCSc1nc2sc3c(c2c(=O)n1CC)CCc1ccccc1-3", "values": [{"measurement": "half-life", "setting": "[6]", "value": 0.683, "unit": "h"}]}, {"smiles": "NS(=O)(=O)c1ccc(CCNC(=O)c2cccc(S(=O)(=O)F)c2)cc1", "values": [{"measurement": "Kinact", "setting": "[1]", "value": "0.51 10^-5/s"}, {"measurement": "Ki", "setting": "[2]", "value": "< 5", "unit": "µM"}]}, {"smiles": "CC(NC(=O)c1ccc(S(=O)(=O)F)cc1)c1cccc(S(N)(=O)=O)c1", "note": "(stereo not drawn)", "values": [{"measurement": "Kinact", "setting": "[1]", "value": "0.45 10^-5/s"}, {"measurement": "Ki", "setting": "[2]", "value": 33, "unit": "µM"}]}, {"smiles": "O=C(COS(=O)(=O)Nc1ccc(Br)cc1)NCc1ccccc1", "values": [{"measurement": "K", "setting": "[8]", "value": 0.003, "unit": "M⁻¹ s⁻¹"}]}, {"smiles": "Nc1ncnc2c1ncn2[C@@H]1O[C@H](CN(CC[C@H](N)C(=O)O)S(=O)(=O)c2ccc(F)c([N+](=O)[O-])c2)[C@@H](O)[C@H]1O", "values": [{"measurement": "half-life", "setting": "[6]", "value": "< 0.0333", "unit": "h"}]}]}
